Among the test systems are CAKI-1 renal; HCT-15 colon; PC-3 prostate; RPMI-8226 leukemia; RXF 393 renal; SF-268 CNS; SK-MEL-2 melanoma; SK-MEL-28 melanoma; SNB-19 CNS; SW-620 colon.
Holding throughout (experiment): inhibition of tumour cell growth, NCI panel, 48 h

The values below come from PubChem BioAssay (NCI).

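Where inhibition never reached the appropriate level, the endpoint shown equals the highest concentration tested. Otherwise, values were interpolated linearly from a five-concentration, 48-hour dose response in 96-well plates. At the GI50, growth is halved. TGI: concentration producing complete growth inhibition.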 A value given as a limit tells only on which side of the number the result lay.

Turning to `COc1ccc(/C=C(\C#N)n2nnc3ccccc32)cc1`, the GI50 with CAKI-1 renal is 0.0638 µM; in the experiment with HCT-15 colon it was 0.0682 µM; in the experiment with PC-3 prostate, 0.293 µM; in the experiment with RPMI-8226 leukemia it was 0.385 µM; in the experiment on RXF 393 renal, 0.15 µM; in the experiment on SF-268 CNS, 2.42 µM. For the same compound, the GI50 in the experiment with SK-MEL-2 melanoma is 0.437 µM; in the experiment with SK-MEL-28 melanoma it was 1.65 µM; in the experiment on SNB-19 CNS, 0.361 µM; in the experiment on SW-620 colon, 0.0603 µM. Also, the TGI with CAKI-1 renal is greater than 84.6 µM; with HCT-15 colon, greater than 100 µM; with PC-3 prostate, greater than 60 µM; in the experiment on RPMI-8226 leukemia it was 24.6 µM; in the experiment on RXF 393 renal, 0.607 µM; in the experiment on SF-268 CNS, greater than 100 µM. In addition, the TGI is 51.1 µM with SK-MEL-2 melanoma, greater than 86.9 µM in the experiment on SK-MEL-28 melanoma, 13.3 µM in the experiment with SNB-19 CNS and greater than 100 µM in the experiment on SW-620 colon.

On to `COc1ccc(-n2cc(-c3cc(OC)c(OC)c(OC)c3)nc2SCc2ccccc2)cc1OC`, for which the GI50 is greater than 96.6 µM with CAKI-1 renal; 33.3 µM in the experiment on HCT-15 colon; 15.3 µM in the experiment on PC-3 prostate; 25.8 µM in the experiment on RPMI-8226 leukemia; 56.3 µM in the experiment on RXF 393 renal; greater than 100 µM in the experiment on SF-268 CNS. The GI50 with SK-MEL-2 melanoma, in the experiment with SK-MEL-28 melanoma, with SNB-19 CNS and in the experiment on SW-620 colon was greater than 100 µM in each case. Besides, the TGI in the experiment on CAKI-1 renal, in the experiment on HCT-15 colon, in the experiment with PC-3 prostate, in the experiment on RPMI-8226 leukemia, in the experiment with RXF 393 renal and with SF-268 CNS was greater than 100 µM throughout. Moreover, the TGI in the experiment with SK-MEL-2 melanoma, with SK-MEL-28 melanoma, with SNB-19 CNS and in the experiment with SW-620 colon was greater than 100 µM in each case.

For `CCN(CC)CCn1c2ccccc2c(=O)c2c(O)ccc(O)c21`, the TGI in the experiment on CAKI-1 renal was 61.5 µM; in the experiment with HCT-15 colon, greater than 58.5 µM; in the experiment with PC-3 prostate, greater than 56.1 µM; in the experiment with RPMI-8226 leukemia it was 85.4 µM; with RXF 393 renal, 35.9 µM; in the experiment on SF-268 CNS, 52.7 µM. The TGI with SK-MEL-2 melanoma was 50.4 µM; in the experiment with SK-MEL-28 melanoma, 48.6 µM; in the experiment with SNB-19 CNS, greater than 74.8 µM; in the experiment on SW-620 colon, 31.5 µM.

On to `O=Cc1ccccc1B(O)O`, for which the TGI in the experiment with CAKI-1 renal is greater than 100 µM; with HCT-15 colon it was greater than 100 µM; in the experiment with PC-3 prostate it was greater than 100 µM; in the experiment on RPMI-8226 leukemia, 0.0472 µM; in the experiment on RXF 393 renal, greater than 100 µM; in the experiment on SF-268 CNS, greater than 100 µM. Besides, the TGI in the experiment on SK-MEL-2 melanoma, in the experiment with SK-MEL-28 melanoma, in the experiment on SNB-19 CNS and in the experiment with SW-620 colon was greater than 100 µM in each case.

For the compound `OC(CNCC1CCCO1)Cn1c2ccc(Cl)cc2c2cc(Cl)ccc21` (centres undefined), the GI50 with CAKI-1 renal is 1.54 µM; in the experiment with HCT-15 colon it was 1.67 µM; in the experiment with PC-3 prostate it was 1.93 µM; in the experiment with RPMI-8226 leukemia it was 2.69 µM; in the experiment on RXF 393 renal it was 1.62 µM; in the experiment on SF-268 CNS it was 1.87 µM. The GI50 is 2.29 µM in the experiment with SK-MEL-2 melanoma, 1.67 µM with SK-MEL-28 melanoma, 1.88 µM in the experiment on SNB-19 CNS and 1.7 µM in the experiment with SW-620 colon. For the same compound, the TGI in the experiment with CAKI-1 renal is 3 µM; in the experiment on HCT-15 colon, 3.26 µM; in the experiment on PC-3 prostate it was 3.74 µM; with RPMI-8226 leukemia, 6.2 µM; with RXF 393 renal, 3.51 µM; in the experiment with SF-268 CNS, 3.77 µM. Further, the TGI in the experiment with SK-MEL-2 melanoma stood at 4.28 µM; with SK-MEL-28 melanoma, 3.15 µM; in the experiment on SNB-19 CNS, 3.96 µM; in the experiment on SW-620 colon it was 3.38 µM.

With `S=c1ssc(Oc2ccccc2)c1Cl`, the GI50 in the experiment with CAKI-1 renal is 16 µM; in the experiment with HCT-15 colon it was 7.76 µM; in the experiment on PC-3 prostate, 10.2 µM; with RPMI-8226 leukemia, 0.95 µM; in the experiment with RXF 393 renal it was 12 µM; with SF-268 CNS, 13.3 µM. Moreover, the GI50 in the experiment on SK-MEL-2 melanoma was 33.9 µM; in the experiment on SK-MEL-28 melanoma it was 11.9 µM; in the experiment with SNB-19 CNS, 31.6 µM; in the experiment on SW-620 colon it was 1.9 µM. Further, the TGI is 29.5 µM in the experiment with CAKI-1 renal; 22.6 µM in the experiment with HCT-15 colon; 23.9 µM in the experiment on PC-3 prostate; 7.7 µM in the experiment with RPMI-8226 leukemia; 29.8 µM in the experiment with RXF 393 renal; 26.1 µM in the experiment on SF-268 CNS. Also, the TGI is 83.3 µM in the experiment with SK-MEL-2 melanoma, 32 µM with SK-MEL-28 melanoma, 79.6 µM in the experiment with SNB-19 CNS and 5.24 µM in the experiment with SW-620 colon.

Take `CCCCCCCCCCCCOC1C(C(COC2OC(C3COC(C)(C)O3)C3OC(C)(C)OC23)NC(=O)NS(=O)(=O)c2ccccc2)OC2OC(C)(C)OC21` (centres undefined): the GI50 is 7.14 µM with CAKI-1 renal; 3.68 µM in the experiment with HCT-15 colon; 3.27 µM in the experiment with PC-3 prostate; 1.95 µM with RPMI-8226 leukemia; 3.02 µM in the experiment with RXF 393 renal; 4.34 µM with SF-268 CNS. The GI50 was 3.29 µM in the experiment with SK-MEL-2 melanoma, 9.61 µM in the experiment with SK-MEL-28 melanoma, 9.18 µM with SNB-19 CNS and 5.14 µM with SW-620 colon. Also, the TGI is 20 µM in the experiment with CAKI-1 renal; 15 µM with HCT-15 colon; 13.8 µM with PC-3 prostate; 6.77 µM in the experiment with RPMI-8226 leukemia; 7.47 µM in the experiment with RXF 393 renal; 19.6 µM in the experiment with SF-268 CNS. The TGI in the experiment on SK-MEL-2 melanoma was 9.57 µM; in the experiment on SK-MEL-28 melanoma, 28 µM; in the experiment on SNB-19 CNS, 40 µM; with SW-620 colon, 18.5 µM.

Turning to `CC[C@@]1(OC(=O)CN)C(=O)OCc2c1cc1n(c2=O)Cc2cc3c(N)cccc3nc2-1`, the GI50 with CAKI-1 renal was less than 0.01 µM; in the experiment on HCT-15 colon it was 0.249 µM; with PC-3 prostate it was 0.16 µM; in the experiment on RPMI-8226 leukemia, 0.0474 µM; with RXF 393 renal it was 0.0352 µM; in the experiment with SF-268 CNS, less than 0.01 µM. In addition, the GI50 was 0.132 µM with SK-MEL-2 melanoma, 0.557 µM with SK-MEL-28 melanoma, less than 0.01 µM in the experiment on SNB-19 CNS and 0.0247 µM with SW-620 colon. Besides, the TGI was 0.582 µM in the experiment with CAKI-1 renal; greater than 100 µM in the experiment with HCT-15 colon; greater than 100 µM with PC-3 prostate; 0.476 µM in the experiment on RXF 393 renal; greater than 100 µM in the experiment with SF-268 CNS; 0.49 µM in the experiment on SK-MEL-2 melanoma. Further, the TGI in the experiment on SK-MEL-28 melanoma is greater than 20.1 µM; in the experiment on SNB-19 CNS it was greater than 100 µM; with SW-620 colon it was 3.78 µM.
